Results taken from US5407815A, “R-(-)-1-(5-hydroxyhexyl)-3-methyl-7-propylxanthine, a process for its preparation and pharmaceuticals containing this compound” (Hoechst Aktiengesellschaft, priority 1989, dated 1995).

How the values were obtained:
cerebral blood flow = details: known from DE-C-2,366,527; cited from earlier work
[1] = test system: regional cerebral blood flow; assay: Regional cerebral blood flow of the cat, heat conductivity technique (heat transport number λ); type: in vivo; details: for duration of action as the half life t1/2 / Δλ% (mean percentage change of the heat transport number): anesthetized cat, 25 mg/kg intraduodenally; for Δλ% (mean percentage change of the heat transport number): suspension in 1% carboxymethylcellulose, n = 6 to 11; for conversion factor (f), based on Δλ%=1 for the racemate: intraduodenal, 25 mg/kg; for cerebral blood flow-stimulating action relative to racemate: racemate made equal to 1
Description: The action of compound 1 according to the invention on the regional cerebral blood flow was investigated in comparison with the racemate 2 and the S-(+)-enantiomer 3 with the aid of the heat conductivity technique according to F. A. Gibbs (Proc. Soc. exp. Biol. (N.Y.) 31 (1933), pp. 141 et seq.), H. Hensel (Naturwissenschaften 43 (1956), pp. 477 et seq.) and E. Betz (Acta Neurol. Scand. Suppl. 14 (1965), pp. 29-37) in cats of both sexes under sodium pentobarbital anesthesia (35 mg/kg i.p.). In this method, with the aid of a heat conductivity probe applied to the surface of the brain in the region of the Gyrus marginalis frontalis, the transport of heat from a point of heating to an adjacent temperature-measuring site in the probe, which is directly proportional to the level of the cerebral blood flow, is determined. The mean percentage change in the heat transport number λ after administration of the preparation is used as a measure of the increase in blood flow.
The compounds were administered intraduodenally as a suspension in 1% strength aqueous carboxymethylcellulose. The dose was 25 mg of test substance per kg of body weight. 6 to 11 individual experiments were carried out for each test preparation and the mean percentage change in the heat transport number (Δλ%) was determined from the measurement data obtained.
The melting points m.p., the enantiomeric purities e.e. (enantiomeric excess), the number of measurements n, the mean percentage change (Δλ%) of the heat transport number as a measure of the potency, the conversion factors f, based on Δλ%=1 for the racemate, and the duration of action as the half life t1/2 (min) for R-(-)-1-(5-hydroxyhexyl)-3-methyl-7-propylxanthine (1), the corresponding enantiomer S-(+)-1-(5-hydroxyhexyl)-3-methyl-7-propylxanthine (3) and the racemate (2) of the two compounds is indicated in Table 1.

Row | SMILES | cerebral blood flow-stimulating action (qualitative) (cerebral blood flow) | duration of action as the half life t1/2 [1] [h] | Δλ% (mean percentage change of the heat transport number) [1] | conversion factor (f), based on Δλ%=1 for the racemate [1] | cerebral blood flow-stimulating action relative to racemate [1] | cerebral blood flow-stimulating action of R-(-)-enantiomer relative to S-(+)-antipode ([1]; ratio R-(-) to S-(+)) | duration of action of R-(-)-compound relative to S-(+)-compound ([1]; ratio R-(-) to S-(+))
1 | CCCn1cnc2c1c(=O)n(CCCCC(C)O)c(=O)n2C (racemic) [Compound 2, 1-(5-hydroxyhexyl)-3-methyl-7-propylxanthine] | cerebral blood flow-stimulating action | 1.67 | +24% | 1.00 | 1 | – | –
2 | CCCn1cnc2c1c(=O)n(CCCC[C@@H](C)O)c(=O)n2C [Compound 1, R-(-)-1-(5-hydroxyhexyl)-3-methyl-7-propylxanthine] | – | 1.67 | +45% | 1.88 | about 2 | about three | about three
3 | CCCn1cnc2c1c(=O)n(CCCC[C@H](C)O)c(=O)n2C [Compound 3, S-(+)-1-(5-hydroxyhexyl)-3-methyl-7-propylxanthine] | – | 0.6 | +16% | 0.67 | about 0.65 | – | –
